{
  "source": "patent US20170334959A1",
  "about": "(priority 2015, published 2017)",
  "origin": "cited, not measured here",
  "key": {"[1]": {"tested_on": "acute and inflammatory pain", "details": "in vivo; cited from earlier work"}, "isolated nerves": {"tested_on": "isolated nerves", "details": "cited from earlier work"}},
  "data": [
    {"substance": "YCQKWMWTCDSERKCCEGMVCRLWCKKKLW-COOH [wild-type Protoxin-II]", "values": [
      {"measurement": "efficacy in rodent models of acute and inflammatory pain", "setting": "[1]", "value": "non-efficacious"},
      {"measurement": "inhibition of action potential firing in isolated nerves", "setting": "isolated nerves", "value": "inability"}
    ]}
  ]
}
